Measured values reported in patent US20190083477A1, “Cyclooxygenase Inhibitor and Calcium Channel Antagonist Compositions and Methods for Use in Urological Procedures” (Omeros Corporation, priority 2005, published 2019).
Ends that are not written are not given here.

Assays:
[1] = test system: bradykinin-induced PGE2 in rat bladder tissue strips; experiment: PGE2 release from urinary bladder strips, enzyme immunoassay (Example I); format: cell-based; details: 10 min, 10 minutes of bradykinin challenge, read-out: BK-induced PGE2 IC50
[2] = test system: rat bladder smooth muscle strips; experiment: tissue or blood; details: read-out: BK-induced Contraction IC50
rat bladder = experiment: Acetic-acid overactive bladder model, intravesical delivery, cystometry (Example V); format: in vivo
Procedure: In this model, acute inflammation of the bladder is produced by using 0.2% acetic acid in saline as the bladder perfusion fluid and cystometry under anesthesia is performed after a recovery period from the surgical procedure.
The animals were anesthesized and bladder catheters were surgically implanted to allow irrigation of the test agents. The following cystometry parameters were monitored: intercontraction interval (ICI), trigger pressure (TP), micturition pressure (MP) and micturition volume (MV) using a Med Associates Cystometry Station and software program. […] Following the saline period, the rat bladder was infused with test agent in saline containing 0.2% acetic acid for 20 min followed by the collection of 7 representative ICI intervals for analysis.
Five to seven animals were normally tested in each group. Acidified saline served as the control. All infusion solutions were prepared fresh on the day of the experiment before use.

COX = details: read-out: IC50 in a non-selective COX assay; cited from earlier work
[3] = test system: rat bladder tissue strips; experiment: tissue or blood; details: read-out: inhibition of contractile response to bradykinin
[4] = test system: bradykinin-stimulated PGE2 release from rat bladder tissue strips; experiment: tissue or blood; details: read-out: inhibition of bradykinin-evoked PGE2 release
[5] = test system: rat bladder smooth muscle strips
L-type channel = details: cited from earlier work
rat urinary bladder = experiment: In vivo rat cystometry model, 0.2% acetic acid infusion (Example I); details: 10 mg/kg intravenous
Procedure: The rats were anesthetized with urethane at 1.2 g/kg i.p. in 5 ml/kg. A polyethylene catheter (PE50) was implanted into the bladder for saline or acetic acid infusion through a 3-way stopcock. A pressure transducer was connected for measurements of intravesical pressure. Warm (37° C.) saline was infused into the bladder at a constant rate of […] (1 ml/hour) until cystometry became stable (no less than 60 minutes). Thereafter, 0.2% acetic acid was infused into the urinary bladder. Aspirin (10 mg/kg i.v.) and vehicle were administered intravenously via a PE-10 catheter in the femoral vein at 5 minutes after infusion of acetic acid was started and at the end of first micturition cycle. Dunnett's test was applied for comparison between the time before and after test substance or vehicle treatment. To ascertain differences between the test substance and the vehicle control group, an unpaired Student's t test was used. Differences are considered significant at […].

[6] = in irrigation buffer, 0.2% acetic acid, female rats

Chain of L-type channel (Q13936 whole entry, the tested form may be a part): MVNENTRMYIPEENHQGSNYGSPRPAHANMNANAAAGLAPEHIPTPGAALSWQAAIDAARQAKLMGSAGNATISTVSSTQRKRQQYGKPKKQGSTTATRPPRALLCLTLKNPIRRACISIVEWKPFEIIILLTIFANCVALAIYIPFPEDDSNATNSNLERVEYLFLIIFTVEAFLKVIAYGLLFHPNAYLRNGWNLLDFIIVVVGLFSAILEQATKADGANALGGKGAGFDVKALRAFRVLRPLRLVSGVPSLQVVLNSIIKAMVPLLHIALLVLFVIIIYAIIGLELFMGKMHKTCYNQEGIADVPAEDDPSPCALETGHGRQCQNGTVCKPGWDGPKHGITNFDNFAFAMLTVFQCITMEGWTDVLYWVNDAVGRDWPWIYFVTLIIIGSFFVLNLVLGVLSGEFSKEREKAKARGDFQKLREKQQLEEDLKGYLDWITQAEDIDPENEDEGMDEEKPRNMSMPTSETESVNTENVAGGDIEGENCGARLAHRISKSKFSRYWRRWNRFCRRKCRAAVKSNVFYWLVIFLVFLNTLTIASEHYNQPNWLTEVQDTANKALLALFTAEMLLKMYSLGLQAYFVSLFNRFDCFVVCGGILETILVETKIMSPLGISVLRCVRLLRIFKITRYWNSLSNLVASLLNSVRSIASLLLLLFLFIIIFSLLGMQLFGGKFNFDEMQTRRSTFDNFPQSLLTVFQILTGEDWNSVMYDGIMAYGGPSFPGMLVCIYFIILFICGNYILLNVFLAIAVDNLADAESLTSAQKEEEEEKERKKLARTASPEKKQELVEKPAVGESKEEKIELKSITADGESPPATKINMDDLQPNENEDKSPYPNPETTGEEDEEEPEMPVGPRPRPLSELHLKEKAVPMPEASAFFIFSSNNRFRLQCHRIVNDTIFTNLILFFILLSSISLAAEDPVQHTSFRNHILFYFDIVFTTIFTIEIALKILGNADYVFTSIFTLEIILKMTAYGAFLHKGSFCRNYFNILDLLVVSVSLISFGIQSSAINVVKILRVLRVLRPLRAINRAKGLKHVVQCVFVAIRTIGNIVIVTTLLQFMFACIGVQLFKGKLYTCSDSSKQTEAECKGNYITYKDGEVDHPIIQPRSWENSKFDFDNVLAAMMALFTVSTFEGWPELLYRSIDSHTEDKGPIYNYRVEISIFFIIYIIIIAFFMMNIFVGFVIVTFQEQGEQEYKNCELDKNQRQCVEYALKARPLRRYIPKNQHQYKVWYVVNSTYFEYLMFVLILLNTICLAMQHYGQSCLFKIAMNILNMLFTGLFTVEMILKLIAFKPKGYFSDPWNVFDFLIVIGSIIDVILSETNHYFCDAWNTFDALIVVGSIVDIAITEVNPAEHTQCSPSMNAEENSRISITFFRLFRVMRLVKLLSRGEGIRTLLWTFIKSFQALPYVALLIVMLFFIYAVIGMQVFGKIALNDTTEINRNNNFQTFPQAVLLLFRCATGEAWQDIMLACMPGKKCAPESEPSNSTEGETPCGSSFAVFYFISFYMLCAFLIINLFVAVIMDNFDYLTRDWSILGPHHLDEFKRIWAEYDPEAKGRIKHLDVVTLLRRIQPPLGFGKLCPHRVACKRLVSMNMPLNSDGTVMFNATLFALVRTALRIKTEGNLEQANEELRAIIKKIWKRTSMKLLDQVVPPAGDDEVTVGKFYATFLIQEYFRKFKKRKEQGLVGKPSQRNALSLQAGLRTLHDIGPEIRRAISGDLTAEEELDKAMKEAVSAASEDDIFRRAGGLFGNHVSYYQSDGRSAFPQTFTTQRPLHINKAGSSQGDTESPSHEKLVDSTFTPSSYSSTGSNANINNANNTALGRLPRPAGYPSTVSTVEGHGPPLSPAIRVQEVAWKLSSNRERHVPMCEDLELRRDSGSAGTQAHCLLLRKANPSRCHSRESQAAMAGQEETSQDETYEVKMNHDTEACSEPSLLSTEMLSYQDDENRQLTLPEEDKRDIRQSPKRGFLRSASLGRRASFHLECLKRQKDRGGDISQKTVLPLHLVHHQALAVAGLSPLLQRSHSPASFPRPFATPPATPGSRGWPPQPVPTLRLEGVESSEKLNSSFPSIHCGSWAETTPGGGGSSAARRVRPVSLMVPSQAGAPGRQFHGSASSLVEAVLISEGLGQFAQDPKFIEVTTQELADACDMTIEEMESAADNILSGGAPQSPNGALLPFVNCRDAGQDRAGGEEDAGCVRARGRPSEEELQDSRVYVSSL

## CS(=O)(=O)c1ccc(-c2cc(Br)sc2-c2ccc(F)cc2)cc1 [DUP-697, 5-bromo-2-(4-fluorophenyl)-3-(4-methylsulfonyl) thiophene]
[1]
  IC50: > 25 µM
[2]
  IC50: > 25 µM

## CC(C(=O)O)c1ccc(-c2ccccc2)c(F)c1 (stereo not shown) [Flurbiprofen]
[1]
  IC50: 1.65 µM
[2]
  IC50: 24.8 µM

## CC(C(=O)O)c1cccc(C(=O)c2ccccc2)c1 (stereo not drawn) [Ketoprofen, 3-benzoyl-α-methylbenzeneacetic acid]
Rat bladder; [6]
  concentration giving complete inhibition of the shortening of the ICI: approximately 3 μM
COX
  IC50: 0.004 to 0.008 µM
[3]
  inhibition at 10 µM: 67%
[4]
  inhibition at 10 µM: 81%

## COC(=O)C1=C(C)NC(C)=C(C(=O)OC)C1c1ccccc1[N+](=O)[O-] [Nifedipine, 1,4-dihydro-2,6-dimethyl-4-(2-nitrophenyl)-3,5-pyridinedicarboxylic acid dimethyl ester]
Rat bladder; [6]
  concentration of maximal effects on the shortening of the ICI: 1 µM
Rat bladder; nifedipine above 1 μM in irrigation buffer
  ICI plateau at higher concentrations: approximately 75 % of baseline
[5]; single agent, 10 min incubation
  type of antagonism upon bradykinin-induced contractile responses: noncompetitive
L-type channel
  onset of action: less than 10 minutes

## CS(=O)(=O)c1ccc(-n2nc(C(F)(F)F)cc2-c2ccc(F)cc2)cc1 [SC-58125, 1-[(4-methysufonyl)phenyl]-3-tri-fluoromethyl-5-(4-fluorophenyl)pyrazole]
[1]
  IC50: > 25 µM
[2]
  IC50: > 25 µM

## CC(=O)Oc1ccccc1C(=O)O [aspirin]
Rat urinary bladder
  Threshold pressure: not affected
  bladder capacity: parallel changes
  inhibition of the acetic acid induced reduction in the intercontraction interval (ICI): gradual time-dependent inhibition
  micturition pressure: not affected

## RPPGFSPFR [bradykinin]
[5]; read-out: EC50, cumulative concentration-response curve (contraction), agonist on bladder strips of normal animals
  EC50: 0.0085 µM
